Laboratory results: publication PMC10794144, “A novel antibiotic class targeting the lipopolysaccharide transporter” (Nature, 2024)
Where two headings read alike, the source gives them in different places.

How the values were obtained:
[1] = molecular target: CYP2C9 (Homo sapiens, UniProt P11712); assay: CYP inhibition; type: in vitro ADME
[2] = molecular target: T1, Phosphodiesterase 3B (Homo sapiens, UniProt Q13370); assay: Off-target screening (CEREP); type: biochemical; conditions: read-out: percent inhibition
T1 construct: purchased Eurofins CEREP SA
Procedure: (§1) Supplementary Table 1 │ Off-target activity screening f or MCP compou nds […]
(§2) The assays given in the table above were conducted at Eurofins CEREP S A (Celle-Lévescault, France) and were run as single point measurements in duplicates in the presence of 10 µ M of the test compound and reported as percent inhibition of the radioligand signal or control enzymatic activity. n.d., not

[3] = molecular target: T2, ZAP70 kinase (Homo sapiens, UniProt P43403); assay: Off-target screening (CEREP); type: biochemical; conditions: read-out: percent inhibition
T2 construct: purchased Eurofins CEREP SA
T2 sequence (P43403 1-619): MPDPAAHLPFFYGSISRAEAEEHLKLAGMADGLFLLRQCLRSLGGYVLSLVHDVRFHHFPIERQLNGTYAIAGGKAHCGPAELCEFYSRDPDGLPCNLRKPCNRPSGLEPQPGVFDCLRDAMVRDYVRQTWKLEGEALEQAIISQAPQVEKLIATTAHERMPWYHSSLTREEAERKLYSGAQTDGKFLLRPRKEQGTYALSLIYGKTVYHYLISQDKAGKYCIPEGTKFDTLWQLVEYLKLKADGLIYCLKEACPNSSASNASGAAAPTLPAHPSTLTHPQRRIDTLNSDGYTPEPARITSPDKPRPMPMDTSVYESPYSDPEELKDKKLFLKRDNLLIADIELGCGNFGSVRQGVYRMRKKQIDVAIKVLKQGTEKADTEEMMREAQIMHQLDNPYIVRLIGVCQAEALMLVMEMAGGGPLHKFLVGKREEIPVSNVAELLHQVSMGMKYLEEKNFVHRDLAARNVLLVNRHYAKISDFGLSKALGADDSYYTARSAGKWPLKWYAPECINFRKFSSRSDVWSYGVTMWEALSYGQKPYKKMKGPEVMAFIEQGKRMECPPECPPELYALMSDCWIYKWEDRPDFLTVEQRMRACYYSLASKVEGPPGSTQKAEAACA
Procedure: as §1, §2

[4] = molecular target: T3, Acetylcholinesterase (Homo sapiens, UniProt P22303); assay: Off-target screening (CEREP); type: biochemical; conditions: read-out: percent inhibition
T3 construct: purchased Eurofins CEREP SA
Procedure: as §1, §2

[5] = molecular target: T4, Angiotensin converting enzyme (Homo sapiens, UniProt P12821); assay: Off-target screening (CEREP); type: biochemical; conditions: read-out: percent inhibition
T4 construct: purchased Eurofins CEREP SA
Procedure: as §1, §2

[6] = molecular target: T5, Monoamine oxidase-A (Homo sapiens, UniProt P21397); assay: Off-target screening (CEREP); type: biochemical; conditions: read-out: percent inhibition
T5 construct: purchased Eurofins CEREP SA
T5 sequence (P21397 1-527): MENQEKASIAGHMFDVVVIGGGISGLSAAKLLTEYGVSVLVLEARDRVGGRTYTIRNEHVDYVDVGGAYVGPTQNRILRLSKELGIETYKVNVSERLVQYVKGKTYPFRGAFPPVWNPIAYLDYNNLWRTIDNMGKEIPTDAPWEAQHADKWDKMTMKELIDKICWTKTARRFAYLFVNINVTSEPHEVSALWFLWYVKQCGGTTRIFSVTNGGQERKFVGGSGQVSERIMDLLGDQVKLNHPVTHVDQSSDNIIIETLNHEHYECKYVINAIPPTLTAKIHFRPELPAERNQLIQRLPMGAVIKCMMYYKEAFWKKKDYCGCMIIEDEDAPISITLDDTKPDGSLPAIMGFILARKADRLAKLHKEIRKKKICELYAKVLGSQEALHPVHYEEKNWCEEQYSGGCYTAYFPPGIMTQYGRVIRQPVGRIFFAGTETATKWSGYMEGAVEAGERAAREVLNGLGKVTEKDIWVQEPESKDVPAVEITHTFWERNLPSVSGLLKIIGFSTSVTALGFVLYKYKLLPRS
Procedure: as §1, §2

[7] = molecular target: T6, GSK-3A (Homo sapiens, UniProt P49840); assay: Off-target screening (CEREP); type: biochemical; conditions: read-out: percent inhibition
T6 construct: purchased Eurofins CEREP SA
Procedure: as §1, §2

[8] = molecular target: T7, Matrix metalloprotease-9 (Homo sapiens, UniProt P14780); assay: Off-target screening (CEREP); type: biochemical; conditions: read-out: percent inhibition
T7 construct: purchased Eurofins CEREP SA
Procedure: as §1, §2

[9] = molecular target: T8, Cyclooxygenase 2 (Homo sapiens, UniProt P35354); assay: Off-target screening (CEREP); type: biochemical; conditions: read-out: percent inhibition
T8 construct: purchased Eurofins CEREP SA
T8 sequence (P35354 18-604): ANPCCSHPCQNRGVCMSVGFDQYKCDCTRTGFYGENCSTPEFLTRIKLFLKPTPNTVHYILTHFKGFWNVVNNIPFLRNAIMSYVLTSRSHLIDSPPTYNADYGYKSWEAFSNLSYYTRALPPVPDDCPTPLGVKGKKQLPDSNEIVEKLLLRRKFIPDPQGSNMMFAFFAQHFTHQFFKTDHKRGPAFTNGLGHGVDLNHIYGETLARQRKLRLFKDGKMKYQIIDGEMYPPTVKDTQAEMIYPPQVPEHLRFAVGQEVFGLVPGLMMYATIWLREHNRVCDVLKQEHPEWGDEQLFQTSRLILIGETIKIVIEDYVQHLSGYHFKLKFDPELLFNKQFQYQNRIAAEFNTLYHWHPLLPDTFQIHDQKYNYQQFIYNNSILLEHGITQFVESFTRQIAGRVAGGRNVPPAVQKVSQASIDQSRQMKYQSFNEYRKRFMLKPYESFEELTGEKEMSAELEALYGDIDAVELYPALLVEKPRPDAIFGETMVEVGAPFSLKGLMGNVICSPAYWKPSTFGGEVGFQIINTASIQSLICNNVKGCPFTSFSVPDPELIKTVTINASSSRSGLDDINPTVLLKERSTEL
Procedure: as §1, §2

[10] = molecular target: T9, CDK2 (Homo sapiens, UniProt P24941); assay: Off-target screening (CEREP); type: biochemical; conditions: read-out: percent inhibition
T9 construct: purchased Eurofins CEREP SA
Procedure: as §1, §2

[11] = system: HIV-1 protease; assay: Off-target screening (CEREP); type: biochemical; conditions: 10 µM, duplicates
Procedure: as §1, §2

[12] = molecular target: T10, Abl kinase (Homo sapiens, UniProt P00519); assay: Off-target screening (CEREP); type: biochemical; conditions: read-out: percent inhibition
T10 construct: purchased Eurofins CEREP SA
Procedure: as §1, §2

[13] = molecular target: T11, Phosphodiesterase 4D2 (Homo sapiens, UniProt Q08499); assay: Off-target screening (CEREP); type: biochemical; conditions: read-out: percent inhibition
T11 construct: purchased Eurofins CEREP SA
Procedure: as §1, §2

[14] = Mouse pharmacokinetics study, i.v. bolus; type: in vivo; conditions: male CD1 mice, 1 mg/kg IV; for Vss / t1/2, terminal plasma half-life: n = 3; for Cl: n = 3, LC-MS, non-compartmental
Procedure: Three male CD1 mice were administered with compound formulation (0.5 mg ml^−1 in 0.9% aqueous sodium chloride solution) as an intravenous bolus dose of 1 mg per kg. Blood was sampled at 0.08, 0.25, 0.5, 1, 2, 4, 7 and 24 h after administration and the blood collecting tubes were centrifuged for 5 min at 5,200g at room temperature to isolate the plasma supernatant. The concentrations of compound in the plasma were analysed using a liquid chromatography–mass spectrometry method with a calibration range of 5–10,000 ng ml^−1. The pharmacokinetic parameters were derived from the individual concentration data and were estimated by non-compartmental analysis.

T7 sequence (P14780 94-707): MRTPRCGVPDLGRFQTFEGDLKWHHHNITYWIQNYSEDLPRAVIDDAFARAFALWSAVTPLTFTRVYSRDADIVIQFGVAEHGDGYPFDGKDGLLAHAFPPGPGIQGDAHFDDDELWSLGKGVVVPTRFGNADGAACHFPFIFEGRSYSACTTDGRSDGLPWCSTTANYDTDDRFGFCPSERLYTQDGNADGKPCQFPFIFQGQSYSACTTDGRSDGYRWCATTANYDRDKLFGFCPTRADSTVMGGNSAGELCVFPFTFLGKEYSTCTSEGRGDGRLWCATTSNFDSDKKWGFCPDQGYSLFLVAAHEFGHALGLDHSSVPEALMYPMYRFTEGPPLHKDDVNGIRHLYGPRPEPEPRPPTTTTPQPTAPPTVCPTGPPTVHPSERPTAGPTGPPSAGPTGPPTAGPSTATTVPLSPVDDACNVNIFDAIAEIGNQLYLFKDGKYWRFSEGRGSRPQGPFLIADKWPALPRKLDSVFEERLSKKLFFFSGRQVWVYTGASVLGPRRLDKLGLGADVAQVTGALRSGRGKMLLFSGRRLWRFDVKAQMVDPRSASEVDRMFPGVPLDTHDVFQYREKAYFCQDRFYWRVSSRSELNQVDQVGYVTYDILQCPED
T1 sequence (Q13370 whole entry): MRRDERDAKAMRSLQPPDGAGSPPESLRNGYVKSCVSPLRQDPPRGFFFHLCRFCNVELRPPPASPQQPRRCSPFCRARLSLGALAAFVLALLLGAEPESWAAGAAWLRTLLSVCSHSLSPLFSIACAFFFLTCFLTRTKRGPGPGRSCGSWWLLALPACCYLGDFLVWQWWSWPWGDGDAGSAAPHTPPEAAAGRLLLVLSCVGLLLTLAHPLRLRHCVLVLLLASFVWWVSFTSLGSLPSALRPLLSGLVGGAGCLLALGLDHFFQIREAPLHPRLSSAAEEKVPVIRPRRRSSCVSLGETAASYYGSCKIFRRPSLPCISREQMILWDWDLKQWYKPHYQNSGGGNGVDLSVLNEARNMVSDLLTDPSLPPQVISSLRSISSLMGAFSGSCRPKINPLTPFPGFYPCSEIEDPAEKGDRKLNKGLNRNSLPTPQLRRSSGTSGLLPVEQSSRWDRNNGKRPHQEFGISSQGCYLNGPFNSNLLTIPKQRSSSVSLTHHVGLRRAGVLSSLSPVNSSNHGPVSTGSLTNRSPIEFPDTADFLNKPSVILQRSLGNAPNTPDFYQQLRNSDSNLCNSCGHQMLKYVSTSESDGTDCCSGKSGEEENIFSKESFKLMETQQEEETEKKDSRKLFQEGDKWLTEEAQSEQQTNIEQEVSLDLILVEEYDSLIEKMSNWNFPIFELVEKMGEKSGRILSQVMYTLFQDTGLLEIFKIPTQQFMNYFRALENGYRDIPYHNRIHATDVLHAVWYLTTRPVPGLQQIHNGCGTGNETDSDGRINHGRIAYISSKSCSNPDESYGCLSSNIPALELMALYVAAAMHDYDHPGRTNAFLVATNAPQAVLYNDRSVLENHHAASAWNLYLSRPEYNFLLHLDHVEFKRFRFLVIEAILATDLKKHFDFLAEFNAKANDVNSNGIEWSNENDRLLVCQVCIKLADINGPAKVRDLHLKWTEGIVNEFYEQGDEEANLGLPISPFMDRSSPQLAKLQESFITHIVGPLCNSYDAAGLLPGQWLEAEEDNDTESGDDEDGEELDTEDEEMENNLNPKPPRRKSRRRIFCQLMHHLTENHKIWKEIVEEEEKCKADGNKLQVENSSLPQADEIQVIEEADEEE
T4 sequence (P12821 30-1306): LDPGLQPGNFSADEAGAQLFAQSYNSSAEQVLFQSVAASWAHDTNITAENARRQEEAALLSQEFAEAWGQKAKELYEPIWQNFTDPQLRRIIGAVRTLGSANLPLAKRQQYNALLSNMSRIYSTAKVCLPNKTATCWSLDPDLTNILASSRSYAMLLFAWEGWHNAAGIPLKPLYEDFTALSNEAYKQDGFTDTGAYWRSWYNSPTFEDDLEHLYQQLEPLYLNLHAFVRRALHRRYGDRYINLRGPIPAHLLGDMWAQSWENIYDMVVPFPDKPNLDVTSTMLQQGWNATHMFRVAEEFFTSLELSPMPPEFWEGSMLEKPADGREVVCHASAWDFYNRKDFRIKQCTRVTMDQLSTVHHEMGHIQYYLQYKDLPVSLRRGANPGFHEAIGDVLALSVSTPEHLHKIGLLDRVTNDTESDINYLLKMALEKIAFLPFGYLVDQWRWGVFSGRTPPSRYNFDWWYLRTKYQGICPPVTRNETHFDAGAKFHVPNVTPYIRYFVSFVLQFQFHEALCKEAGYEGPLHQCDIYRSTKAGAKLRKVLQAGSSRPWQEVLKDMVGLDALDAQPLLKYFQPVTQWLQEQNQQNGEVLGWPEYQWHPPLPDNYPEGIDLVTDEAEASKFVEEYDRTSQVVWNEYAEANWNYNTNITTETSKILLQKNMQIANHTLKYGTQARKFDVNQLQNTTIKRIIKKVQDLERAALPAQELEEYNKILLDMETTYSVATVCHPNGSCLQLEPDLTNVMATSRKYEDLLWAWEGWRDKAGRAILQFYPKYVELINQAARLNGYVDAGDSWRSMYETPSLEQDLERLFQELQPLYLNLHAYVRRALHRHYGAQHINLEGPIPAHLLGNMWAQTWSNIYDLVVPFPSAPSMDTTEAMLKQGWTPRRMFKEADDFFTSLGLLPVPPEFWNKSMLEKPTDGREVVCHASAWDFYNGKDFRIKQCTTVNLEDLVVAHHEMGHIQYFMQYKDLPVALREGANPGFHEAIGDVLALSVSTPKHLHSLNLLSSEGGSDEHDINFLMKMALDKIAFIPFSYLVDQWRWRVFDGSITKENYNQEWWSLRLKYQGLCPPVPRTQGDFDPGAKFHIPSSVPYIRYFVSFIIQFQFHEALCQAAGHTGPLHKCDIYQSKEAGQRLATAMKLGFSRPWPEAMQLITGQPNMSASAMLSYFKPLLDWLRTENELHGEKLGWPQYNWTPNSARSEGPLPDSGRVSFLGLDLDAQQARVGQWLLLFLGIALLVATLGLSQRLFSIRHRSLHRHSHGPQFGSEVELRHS
T11 sequence (Q08499 303-809 limits assumed): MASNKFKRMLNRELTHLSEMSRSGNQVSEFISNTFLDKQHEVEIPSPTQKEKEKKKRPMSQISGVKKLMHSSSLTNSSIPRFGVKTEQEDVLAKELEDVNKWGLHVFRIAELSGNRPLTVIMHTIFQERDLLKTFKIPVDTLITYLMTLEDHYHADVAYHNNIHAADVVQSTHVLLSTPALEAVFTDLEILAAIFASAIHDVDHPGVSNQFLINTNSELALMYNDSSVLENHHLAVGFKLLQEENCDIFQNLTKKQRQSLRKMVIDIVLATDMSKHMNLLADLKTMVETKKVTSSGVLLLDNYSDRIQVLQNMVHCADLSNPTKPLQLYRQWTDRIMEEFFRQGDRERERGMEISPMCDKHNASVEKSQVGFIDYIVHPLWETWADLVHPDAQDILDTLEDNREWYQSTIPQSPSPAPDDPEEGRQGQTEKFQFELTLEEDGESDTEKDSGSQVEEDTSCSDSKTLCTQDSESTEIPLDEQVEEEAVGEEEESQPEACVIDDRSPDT
T10 sequence (P00519 whole entry): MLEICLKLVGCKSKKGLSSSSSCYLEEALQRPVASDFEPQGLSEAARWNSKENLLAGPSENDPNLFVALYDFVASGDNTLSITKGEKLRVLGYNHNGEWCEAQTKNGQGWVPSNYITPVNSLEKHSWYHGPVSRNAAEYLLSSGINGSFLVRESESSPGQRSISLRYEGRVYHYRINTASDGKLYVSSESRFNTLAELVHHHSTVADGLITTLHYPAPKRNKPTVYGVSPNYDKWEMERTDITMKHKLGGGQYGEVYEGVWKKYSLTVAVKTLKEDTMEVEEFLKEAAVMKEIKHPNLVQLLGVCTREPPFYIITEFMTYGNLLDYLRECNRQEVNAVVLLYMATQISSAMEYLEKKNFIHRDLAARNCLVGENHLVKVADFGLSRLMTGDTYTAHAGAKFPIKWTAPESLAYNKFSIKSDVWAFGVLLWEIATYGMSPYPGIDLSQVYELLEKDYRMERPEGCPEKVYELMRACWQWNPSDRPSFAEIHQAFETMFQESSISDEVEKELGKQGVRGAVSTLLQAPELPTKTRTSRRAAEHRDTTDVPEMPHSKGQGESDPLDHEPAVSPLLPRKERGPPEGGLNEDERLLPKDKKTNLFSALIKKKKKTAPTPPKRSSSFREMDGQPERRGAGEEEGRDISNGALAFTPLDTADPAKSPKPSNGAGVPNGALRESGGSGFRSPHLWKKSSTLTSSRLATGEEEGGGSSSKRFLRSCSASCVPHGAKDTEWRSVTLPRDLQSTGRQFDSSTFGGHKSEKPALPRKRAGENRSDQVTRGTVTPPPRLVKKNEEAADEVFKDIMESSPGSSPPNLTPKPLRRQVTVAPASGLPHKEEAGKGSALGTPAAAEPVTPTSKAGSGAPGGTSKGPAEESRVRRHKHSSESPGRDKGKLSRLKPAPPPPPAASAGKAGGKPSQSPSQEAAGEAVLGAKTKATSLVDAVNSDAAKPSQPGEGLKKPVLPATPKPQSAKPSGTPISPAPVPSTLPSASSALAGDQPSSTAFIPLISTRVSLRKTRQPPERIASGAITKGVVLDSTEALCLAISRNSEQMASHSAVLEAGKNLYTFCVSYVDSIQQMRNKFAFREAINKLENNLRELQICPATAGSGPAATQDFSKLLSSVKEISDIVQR

| SMILES | CYP inh. (2C9) [1] | inhibition at 10 µM ([2]; 10 µM, duplicates) [%] | inhibition at 10 µM ([3]; 10 µM, duplicates) [%] | inhibition at 10 µM ([4]; 10 µM, duplicates) [%] | inhibition at 10 µM ([5]; 10 µM, duplicates) [%] | inhibition at 10 µM ([6]; 10 µM, duplicates) [%] | inhibition at 10 µM ([7]; 10 µM, duplicates) [%] | inhibition at 10 µM ([8]; 10 µM, duplicates) [%] | inhibition at 10 µM ([9]; 10 µM, duplicates) [%] | inhibition at 10 µM ([10]; 10 µM, duplicates) [%] | inhibition at 10 µM [2] [%] | inhibition at 10 µM [3] [%] | percent inhibition [11] [%] | inhibition at 10 µM [4] [%] | inhibition at 10 µM [5] [%] | inhibition at 10 µM [6] [%] | inhibition at 10 µM [7] [%] | Vss [14] [L/kg] | t1/2, terminal plasma half-life [14] [min] | Cl [14] [mL/min/kg] | also measured |
| --- | --- | --- | --- | --- | --- | --- | --- | --- | --- | --- | --- | --- | --- | --- | --- | --- | --- | --- | --- | --- | --- |
| CN1C(=O)[C@H](CCCN)NC(=O)[C@H](CCCN)NCc2ccccc2Sc2ccccc2CNC(=O)[C@@H]1Cc1c[nH]c2ccccc12 [RO7036668] | > 50 µM | 17 | 2 | 9 | -7 | -2 | -12 | 6 | 4 | 9 | – | – | – | – | – | – | – | – | – | – | – |
| CN1C(=O)[C@H](CCCCN)NC(=O)[C@H](CCCN)NCc2cccnc2Sc2c(Cl)ccc(Cl)c2CNC(=O)[C@@H]1Cc1c[nH]c2ccccc12 [RO7075573] | > 50 µM | – | – | – | – | – | – | – | – | – | -3 | -47 | -4 | 4 | -7 | 3 | -1 | 0.3 | 120 | 5.7 | inhibition at 10 µM [12]: -85%; inhibition at 10 µM [8]: -31%; inhibition at 10 µM [13]: 0%; inhibition at 10 µM [9]: -46%; inhibition at 10 µM [10]: -5% |
| CN1C(=O)[C@H](CCCCN)NC(=O)[C@H](CCCN)NCc2cccnc2Sc2c(Cl)ccc(-c3ccc(C(=O)O)cc3)c2CNC(=O)[C@@H]1Cc1c[nH]c2ccccc12 [RO7202110] | >50 (3A4) >50 (2C9) >50 (2D6) μM | 2 | -39 | 40 | 3 | 11 | 22 | 13 | 12 | 17 | – | – | 12 | – | – | – | – | 0.9 | 12 | 84 | inhibition at 10 µM ([12]; 10 µM, duplicates): -24%; inhibition at 10 µM ([13]; 10 µM, duplicates): -3% |
| CN1C(=O)[C@H](CCCCN)NC(=O)[C@H](CCCN)NCc2cccnc2Sc2cccc(-c3ccc(C(=O)O)cc3)c2CNC(=O)[C@@H]1Cc1c[nH]c2ccccc12 [zosurabalpin] | >50 (3A4) >50 (2C9) >50 (2D6) μM | – | – | – | – | – | – | – | – | – | 2 | 1 | 16 | 13 | -16 | 2 | -1 | 0.7 | 18 | 51 | inhibition at 10 µM [12]: -18%; inhibition at 10 µM [8]: 10%; inhibition at 10 µM [13]: 12%; inhibition at 10 µM [9]: -7%; inhibition at 10 µM [10]: 9% |
